Experimental data from US20190330224A1, “ACC INHIBITORS AND USES THEREOF” (Gilead Apollo, LLC, priority 2015, published 2019).
Values after ≈ are worked out from the molar mass of the structure shown.

Experiments:
[1] = compound concentration 10 ppm, foliar spray, evaluated 7 days after inoculation
C. albicans ATCC 90028 = experiment: Anti-Fungal Activity Assay (broth microtiter MIC), C. albicans; type: cell-based, Candida albicans; conditions: Candida albicans, ATCC90028, 48 h, 3 replicates; MIC recorded at 48 h; read-out: MIC C. albicans ATCC 90028
Summary of the method: (§1)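 MIC taken as visual growth inhibition versus the growth control, mostly at 48 h (soraphen also at 24 h). Following CLSI M27-A3, colonies grown overnight at 35° C on Sabouraud dextrose agar were suspended in RPMI 1640+MOPS; test agents came from 1 mg/mL DMSO stocks.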

[2] = system: Fusarium moniliforme (Fm); experiment: Growth inhibition assay of fungal pathogens, Fm; type: cell-based; conditions: Fusarium verticillioides; 48 hours; read-out: Concentration at 90% Inhibition, Fm
Summary of the method: (§2)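 Spores in 17% V8 liquid medium were exposed to compound at final 50, 10 and 2 ppm or 2, 0.4 and 0.08 ppm with 2% DMSO. After 48 h, OD600 (blank-subtracted) and visual ratings were compared with the 2% DMSO control to give percent growth inhibition.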

Human ACC2 = Human ACC2 (Homo sapiens, UniProt O00763); experiment: In vitro ACC2 inhibition assay (ADP-Glo), human ACC2; type: biochemical; conditions: 5 nM ACC2, 20 μM ATP, 20 μM acetyl-CoA
Chain of Human ACC2 (O00763 whole entry): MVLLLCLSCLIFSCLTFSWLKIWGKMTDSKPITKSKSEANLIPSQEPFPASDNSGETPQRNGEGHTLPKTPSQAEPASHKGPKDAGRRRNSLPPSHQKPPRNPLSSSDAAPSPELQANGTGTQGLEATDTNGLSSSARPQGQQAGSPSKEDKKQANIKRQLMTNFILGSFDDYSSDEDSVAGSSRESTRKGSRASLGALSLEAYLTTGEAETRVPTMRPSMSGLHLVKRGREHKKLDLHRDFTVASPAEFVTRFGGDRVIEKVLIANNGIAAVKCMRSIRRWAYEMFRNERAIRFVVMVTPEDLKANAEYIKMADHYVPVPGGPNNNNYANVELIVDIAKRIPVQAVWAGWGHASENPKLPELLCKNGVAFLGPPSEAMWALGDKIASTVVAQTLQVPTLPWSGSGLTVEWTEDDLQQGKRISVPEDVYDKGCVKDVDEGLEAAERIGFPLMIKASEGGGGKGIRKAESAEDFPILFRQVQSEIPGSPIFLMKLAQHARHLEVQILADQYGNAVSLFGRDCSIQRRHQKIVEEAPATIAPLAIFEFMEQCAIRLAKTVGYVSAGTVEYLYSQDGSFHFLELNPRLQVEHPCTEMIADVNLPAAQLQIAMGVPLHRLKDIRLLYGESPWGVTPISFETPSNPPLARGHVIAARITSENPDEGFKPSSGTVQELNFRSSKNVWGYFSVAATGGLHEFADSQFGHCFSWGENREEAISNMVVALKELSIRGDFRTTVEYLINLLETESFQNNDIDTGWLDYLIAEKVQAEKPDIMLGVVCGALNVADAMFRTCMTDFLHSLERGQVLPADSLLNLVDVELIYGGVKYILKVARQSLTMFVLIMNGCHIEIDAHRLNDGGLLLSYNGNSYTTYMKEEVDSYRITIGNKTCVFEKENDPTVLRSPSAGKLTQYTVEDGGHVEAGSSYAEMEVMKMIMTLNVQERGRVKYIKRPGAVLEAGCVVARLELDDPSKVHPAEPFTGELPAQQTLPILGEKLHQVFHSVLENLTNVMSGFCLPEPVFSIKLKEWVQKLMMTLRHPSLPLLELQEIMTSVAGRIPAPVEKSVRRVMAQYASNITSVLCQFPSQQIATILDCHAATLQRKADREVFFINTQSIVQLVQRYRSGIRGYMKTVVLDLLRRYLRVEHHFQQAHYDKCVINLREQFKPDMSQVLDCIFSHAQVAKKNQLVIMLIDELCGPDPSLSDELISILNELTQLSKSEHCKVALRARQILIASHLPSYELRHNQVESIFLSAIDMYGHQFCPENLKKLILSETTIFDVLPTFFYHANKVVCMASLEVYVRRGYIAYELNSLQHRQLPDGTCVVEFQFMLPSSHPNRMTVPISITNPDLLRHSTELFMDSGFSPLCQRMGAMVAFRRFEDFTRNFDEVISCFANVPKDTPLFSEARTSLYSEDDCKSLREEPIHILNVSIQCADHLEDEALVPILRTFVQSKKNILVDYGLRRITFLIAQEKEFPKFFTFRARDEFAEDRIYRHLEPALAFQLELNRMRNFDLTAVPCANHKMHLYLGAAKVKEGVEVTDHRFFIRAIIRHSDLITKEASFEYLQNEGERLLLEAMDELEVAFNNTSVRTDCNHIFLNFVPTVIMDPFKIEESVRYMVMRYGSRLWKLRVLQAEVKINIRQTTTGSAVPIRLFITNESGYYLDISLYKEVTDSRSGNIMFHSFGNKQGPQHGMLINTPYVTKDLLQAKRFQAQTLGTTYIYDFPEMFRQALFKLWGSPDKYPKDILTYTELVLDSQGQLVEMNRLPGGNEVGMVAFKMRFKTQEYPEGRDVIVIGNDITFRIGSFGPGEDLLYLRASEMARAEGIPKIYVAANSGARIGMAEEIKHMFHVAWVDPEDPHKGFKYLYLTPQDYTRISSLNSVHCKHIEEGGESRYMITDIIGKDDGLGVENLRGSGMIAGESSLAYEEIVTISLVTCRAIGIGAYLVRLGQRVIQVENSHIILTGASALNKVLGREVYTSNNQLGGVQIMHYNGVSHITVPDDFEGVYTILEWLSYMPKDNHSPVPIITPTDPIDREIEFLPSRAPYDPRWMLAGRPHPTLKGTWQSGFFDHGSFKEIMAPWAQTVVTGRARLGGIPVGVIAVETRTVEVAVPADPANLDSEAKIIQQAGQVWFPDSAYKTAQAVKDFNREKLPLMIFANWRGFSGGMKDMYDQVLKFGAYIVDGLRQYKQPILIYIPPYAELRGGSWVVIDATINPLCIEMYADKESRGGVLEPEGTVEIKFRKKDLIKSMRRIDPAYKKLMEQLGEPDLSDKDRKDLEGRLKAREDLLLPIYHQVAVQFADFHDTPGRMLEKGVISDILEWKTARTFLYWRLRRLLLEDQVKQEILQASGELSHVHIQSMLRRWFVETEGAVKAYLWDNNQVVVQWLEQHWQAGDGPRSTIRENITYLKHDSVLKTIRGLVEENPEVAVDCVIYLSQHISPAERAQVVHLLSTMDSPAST

[3] = system: C. parapsilosis ATCC 22019; experiment: Anti-Fungal Activity Assay (broth microtiter MIC), C. parapsilosis; type: cell-based, Candida parapsilosis; conditions: Lodderomyces parapsilosis, ATCC22019, 48 h, 3 replicates; MIC recorded at 48 h; read-out: MIC C. parapsilosis ATCC 22019
Summary of the method: as §1

[4] = system: Blumeria graminis f sp. hordei; experiment: Foliar protection test, barley powdery mildew control; type: in vivo, Blumeria graminis f sp. hordei on Hordeum vulgare cv. Perry; conditions: 168 h, compound concentration 50 ppm, foliar spray, evaluated 7 days after inoculation, read-out: Barley Powdery Mildew Control at 50 ppm
Summary of the method: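 Barley cv. Perry at first true leaf (6 days) sprayed to wetness on both leaf sides with compound in 5% acetone/0.005% Tween 80, typically at 200, 100, 50, 10 or 2 ppm. Inoculated 24 h later by shaking spores from colonized plants; kept at 20-22 °C, 70% RH. Mildew colonization scored 7 days later as percent control.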

[5] = system: Fusarium virguliforme (Fv); experiment: Growth inhibition assay of fungal pathogens, Fv; type: cell-based; conditions: 48 hours, read-out: Concentration at 90% Inhibition, Fv
Summary of the method: as §2

Rhizoctonia solani (Rs) = experiment: Growth inhibition assay of fungal pathogens, Rs; type: cell-based; conditions: 48 hours, read-out: Concentration at 90% Inhibition, Rs
[6] = system: Phytophthora capsici (Pc); experiment: Growth inhibition assay of fungal pathogens, Pc; type: cell-based; conditions: 48 hours, read-out: Concentration at 90% Inhibition, Pc
Summary of the method: as §2

Diplodia maydis (Dm) = experiment: Growth inhibition assay of fungal pathogens, Dm; type: cell-based; conditions: Stenocarpella maydis; 48 hours; read-out: Concentration at 90% Inhibition, Dm
Summary of the method: as §2

C. krusei ATCC 6258 = experiment: Anti-Fungal Activity Assay (broth microtiter MIC), C. krusei; type: cell-based, Candida krusei; conditions: Pichia kudriavzevii, ATCC6258, 48 h, 3 replicates; MIC recorded at 48 h; read-out: MIC C. krusei ATCC 6258
Summary of the method: as §1

Botrtyis cinerea (Bc) = experiment: Growth inhibition assay of fungal pathogens, Bc; type: cell-based; conditions: 48 hours; read-out: Concentration at 90% Inhibition, Bc
Summary of the method: as §2

Septoria tritici (St) = experiment: Growth inhibition assay of fungal pathogens, St; type: cell-based; conditions: Zymoseptoria tritici; 48 hours; read-out: Concentration at 90% Inhibition, St
Summary of the method: as §2

Fungal ACC2 = Fungal ACC2 (UniProt Q00955); conditions: read-out: Fungal ACC2 (IC50, in vitro ACC2 inhibition)
Chain of Fungal ACC2 (Q00955 whole entry): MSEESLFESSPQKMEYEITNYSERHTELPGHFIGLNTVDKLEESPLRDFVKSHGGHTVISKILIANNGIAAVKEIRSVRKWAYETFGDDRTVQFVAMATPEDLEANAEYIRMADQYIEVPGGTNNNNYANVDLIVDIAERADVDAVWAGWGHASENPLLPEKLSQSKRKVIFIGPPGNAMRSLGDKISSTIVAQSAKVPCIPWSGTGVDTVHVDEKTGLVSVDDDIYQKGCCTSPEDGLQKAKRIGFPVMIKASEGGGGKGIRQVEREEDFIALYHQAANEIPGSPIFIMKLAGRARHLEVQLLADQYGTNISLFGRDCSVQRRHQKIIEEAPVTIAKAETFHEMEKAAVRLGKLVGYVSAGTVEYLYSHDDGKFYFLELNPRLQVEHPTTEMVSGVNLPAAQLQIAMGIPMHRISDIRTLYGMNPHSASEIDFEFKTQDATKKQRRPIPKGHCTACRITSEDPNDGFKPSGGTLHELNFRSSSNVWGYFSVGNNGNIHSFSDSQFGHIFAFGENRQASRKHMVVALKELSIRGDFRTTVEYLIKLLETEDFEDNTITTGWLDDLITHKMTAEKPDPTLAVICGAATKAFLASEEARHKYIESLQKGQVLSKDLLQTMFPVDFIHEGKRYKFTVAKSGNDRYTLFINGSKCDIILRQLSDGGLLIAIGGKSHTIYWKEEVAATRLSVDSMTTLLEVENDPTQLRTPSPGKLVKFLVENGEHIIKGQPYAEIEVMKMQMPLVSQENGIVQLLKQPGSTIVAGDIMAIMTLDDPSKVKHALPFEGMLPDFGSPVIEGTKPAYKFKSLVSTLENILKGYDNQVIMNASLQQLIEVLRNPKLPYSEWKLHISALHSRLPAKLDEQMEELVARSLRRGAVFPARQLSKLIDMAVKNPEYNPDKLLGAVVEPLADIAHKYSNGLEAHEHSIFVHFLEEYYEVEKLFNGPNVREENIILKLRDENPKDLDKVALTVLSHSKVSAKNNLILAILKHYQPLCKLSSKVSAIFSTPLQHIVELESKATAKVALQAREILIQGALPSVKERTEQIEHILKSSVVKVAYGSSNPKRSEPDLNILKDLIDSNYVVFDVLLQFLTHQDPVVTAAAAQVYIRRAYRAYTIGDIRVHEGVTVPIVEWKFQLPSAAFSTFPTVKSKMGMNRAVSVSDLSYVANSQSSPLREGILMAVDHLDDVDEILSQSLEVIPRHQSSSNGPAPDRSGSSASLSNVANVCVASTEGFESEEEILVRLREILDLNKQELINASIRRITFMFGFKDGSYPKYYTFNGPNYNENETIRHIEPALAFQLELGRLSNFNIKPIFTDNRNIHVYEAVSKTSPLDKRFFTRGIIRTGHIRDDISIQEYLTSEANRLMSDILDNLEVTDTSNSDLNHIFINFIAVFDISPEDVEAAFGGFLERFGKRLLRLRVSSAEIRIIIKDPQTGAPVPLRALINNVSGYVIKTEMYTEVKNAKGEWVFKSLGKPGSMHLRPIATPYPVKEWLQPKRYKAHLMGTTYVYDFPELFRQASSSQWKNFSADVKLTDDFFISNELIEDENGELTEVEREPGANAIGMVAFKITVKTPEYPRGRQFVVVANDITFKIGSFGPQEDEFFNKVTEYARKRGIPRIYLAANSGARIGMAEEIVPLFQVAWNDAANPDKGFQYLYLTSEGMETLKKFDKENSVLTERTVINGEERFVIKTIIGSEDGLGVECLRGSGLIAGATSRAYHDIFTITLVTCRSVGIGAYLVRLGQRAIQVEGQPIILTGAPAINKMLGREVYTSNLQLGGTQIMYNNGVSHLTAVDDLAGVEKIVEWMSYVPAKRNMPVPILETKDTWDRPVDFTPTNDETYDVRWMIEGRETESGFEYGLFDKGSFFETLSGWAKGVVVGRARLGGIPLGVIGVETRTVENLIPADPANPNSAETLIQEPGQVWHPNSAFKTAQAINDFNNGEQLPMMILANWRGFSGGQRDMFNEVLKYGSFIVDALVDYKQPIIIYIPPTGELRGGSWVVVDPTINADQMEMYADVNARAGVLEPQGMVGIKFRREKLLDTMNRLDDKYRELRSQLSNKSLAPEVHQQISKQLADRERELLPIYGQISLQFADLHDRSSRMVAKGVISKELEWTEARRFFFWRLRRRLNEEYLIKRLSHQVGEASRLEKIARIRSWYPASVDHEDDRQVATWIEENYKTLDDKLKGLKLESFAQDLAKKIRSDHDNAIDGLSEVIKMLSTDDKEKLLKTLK

[7] = system: Collectotrichum graminicola (Cg); experiment: Growth inhibition assay of fungal pathogens, Cg; type: cell-based; conditions: 48 hours; read-out: Concentration at 90% Inhibition, Cg
Summary of the method: as §2

COc1ccc(F)cc1[C@H](Cn1c(=O)n([C@H]2CCN(C)C2=O)c(=O)c2c(C)c(-n3nccn3)sc21)OCCO [Compound I-82, 1-((R)-2-(5-fluoro-2-methoxyphenyl)-2-(2-hydroxy-ethoxy)ethyl)-5-methyl-3-((S)-1-methyl-2-oxopyrrolidin-3-yl)-6-(2H-1,2,3-triazol-2-yl)thieno[2,3-d]pyrimidine-2,4(1H,3H)-dione]
Barley Powdery Mildew Control at 10 ppm [1]: D (provided a compound having <25% control of barley powdery mildew)
MIC (C. albicans ATCC 90028): 2.1 to 4 µg/mL (≈ 3.76 to 7.16 µM)
IC90 [2]: 2 µg/mL (≈ 3.58 µM)
IC50 (Human ACC2): 2 to 10 nM
MIC [3]: 2.1 to 4 µg/mL (≈ 3.76 to 7.16 µM)
pest or weed control at 50 ppm [4]: 25 to 49%
IC90 [5]: 2 µg/mL (≈ 3.58 µM)
IC90 (Rhizoctonia solani (Rs)): 2 µg/mL (≈ 3.58 µM)
IC90 [6]: > 50 µg/mL
IC90 (Diplodia maydis (Dm)): 10 µg/mL (≈ 17.9 µM)
MIC (C. krusei ATCC 6258): 2.1 to 4 µg/mL (≈ 3.76 to 7.16 µM)
IC90 (Botrtyis cinerea (Bc)): 2 µg/mL (≈ 3.58 µM)
IC90 (Septoria tritici (St)): > 50 µg/mL
IC50 (Fungal ACC2): 0.7 to 2 nM
IC90 [7]: 10 µg/mL (≈ 17.9 µM)

COc1ccc(F)cc1[C@H](Cn1c(=O)n([C@@H]2CCN(C)C2=O)c(=O)c2c(C)c(-n3nccn3)sc21)OCCO [Compound I-83, 1-((R)-2-(5-fluoro-2-methoxyphenyl)-2-(2-hydroxy-ethoxy)ethyl)-5-methyl-3-((R)-1-methyl-2-oxopyrrolidin-3-yl)-6-(2H-1,2,3-triazol-2-yl)thieno[2,3-d]pyrimidine-2,4(1H,3H)-dione]
Barley Powdery Mildew Control at 10 ppm [1]: D (provided a compound having <25% control of barley powdery mildew)
MIC (C. albicans ATCC 90028): 2.1 to 4 µg/mL (≈ 3.76 to 7.16 µM)
IC90 [2]: 2 µg/mL (≈ 3.58 µM)
IC50 (Human ACC2): 2 to 10 nM
MIC [3]: 2.1 to 4 µg/mL (≈ 3.76 to 7.16 µM)
pest or weed control at 50 ppm [4]: 70 to 84%
IC90 [5]: 10 µg/mL (≈ 17.9 µM)
IC90 (Rhizoctonia solani (Rs)): 2 µg/mL (≈ 3.58 µM)
IC90 [6]: > 50 µg/mL
IC90 (Diplodia maydis (Dm)): 10 µg/mL (≈ 17.9 µM)
MIC (C. krusei ATCC 6258): 2.1 to 4 µg/mL (≈ 3.76 to 7.16 µM)
IC90 (Botrtyis cinerea (Bc)): 2 µg/mL (≈ 3.58 µM)
IC90 (Septoria tritici (St)): > 50 µg/mL
IC50 (Fungal ACC2): 0.7 to 2 nM
IC90 [7]: 2 µg/mL (≈ 3.58 µM)

COc1ccc(F)cc1[C@H](Cn1c(=O)n([C@H]2CCNC2=O)c(=O)c2c(C)c(-n3nccn3)sc21)OCCC#N [Compound I-106, 3-((R)-1-(5-fluoro-2-methoxyphenyl)-2-(5-methyl-2,4-dioxo-3-((S)-2-oxopyrrolidin-3-yl)-6-(2H-1,2,3-triazol-2-yl)-3,4-dihydrothieno[2,3-d]pyrimidin-1(2H)-yl)ethoxy)propanenitrile]
Barley Powdery Mildew Control at 10 ppm [1]: D (provided a compound having <25% control of barley powdery mildew)
MIC (C. albicans ATCC 90028): 2.1 to 4 µg/mL (≈ 3.79 to 7.23 µM)
IC90 [2]: 2 µg/mL (≈ 3.61 µM)
IC50 (Human ACC2): 10 to 100 nM
MIC [3]: 2.1 to 4 µg/mL (≈ 3.79 to 7.23 µM)
pest or weed control at 50 ppm [4]: 25 to 49%
IC90 [5]: 10 µg/mL (≈ 18.1 µM)
IC90 (Rhizoctonia solani (Rs)): 2 µg/mL (≈ 3.61 µM)
IC90 [6]: > 50 µg/mL
IC90 (Diplodia maydis (Dm)): > 50 µg/mL
MIC (C. krusei ATCC 6258): 2.1 to 4 µg/mL (≈ 3.79 to 7.23 µM)
IC90 (Botrtyis cinerea (Bc)): 2 µg/mL (≈ 3.61 µM)
IC90 (Septoria tritici (St)): > 50 µg/mL
IC50 (Fungal ACC2): 0.7 to 2 nM
IC90 [7]: > 50 µg/mL

COc1ccc(F)cc1[C@H](Cn1c(=O)n([C@H]2CCCNC2=O)c(=O)c2c(C)c(-n3nccn3)sc21)OCCC#N [Compound I-110, 3-((R)-1-(5-fluoro-2-methoxyphenyl)-2-(5-methyl-2,4-dioxo-3-((S)-2-oxopiperidin-3-yl)-6-(2H-1,2,3-triazol-2-yl)-3,4-dihydrothieno[2,3-d]pyrimidin-1 (2H)-yl)ethoxy)propanenitrile]
Barley Powdery Mildew Control at 10 ppm [1]: D (provided a compound having <25% control of barley powdery mildew)
MIC (C. albicans ATCC 90028): 2.1 to 4 µg/mL (≈ 3.7 to 7.05 µM)
IC90 [2]: 2 µg/mL (≈ 3.52 µM)
IC50 (Human ACC2): 10 to 100 nM
MIC [3]: 2.1 to 4 µg/mL (≈ 3.7 to 7.05 µM)
pest or weed control at 50 ppm [4]: 50 to 69%
IC90 [5]: 10 µg/mL (≈ 17.6 µM)
IC90 (Rhizoctonia solani (Rs)): 2 µg/mL (≈ 3.52 µM)
IC90 [6]: > 50 µg/mL
IC90 (Diplodia maydis (Dm)): > 50 µg/mL
MIC (C. krusei ATCC 6258): 2.1 to 4 µg/mL (≈ 3.7 to 7.05 µM)
IC90 (Botrtyis cinerea (Bc)): 2 µg/mL (≈ 3.52 µM)
IC90 (Septoria tritici (St)): > 50 µg/mL
IC50 (Fungal ACC2): 0.7 to 2 nM
IC90 [7]: 10 µg/mL (≈ 17.6 µM)

COc1ccc(F)cc1[C@H](Cn1c(=O)n([C@@H]2CCCNC2=O)c(=O)c2c(C)c(-n3nccn3)sc21)OCCC#N [Compound I-111, 3-((R)-1-(5-fluoro-2-methoxyphenyl)-2-(5-methyl-2,4-dioxo-3-((R)-2-oxopiperidin-3-yl)-6-(2H-1,2,3-triazol-2-yl)-3,4-dihydrothieno[2,3-d]pyrimidin-1(2H)-yl)ethoxy)propanenitrile]
Barley Powdery Mildew Control at 10 ppm [1]: C (provided a compound having from 25 to 49% control of barley powdery mildew)
MIC (C. albicans ATCC 90028): 2.1 to 4 µg/mL (≈ 3.7 to 7.05 µM)
IC90 [2]: 2 µg/mL (≈ 3.52 µM)
IC50 (Human ACC2): 2 to 10 nM
MIC [3]: 2.1 to 4 µg/mL (≈ 3.7 to 7.05 µM)
pest or weed control at 50 ppm [4]: 50 to 69%
IC90 [5]: 10 µg/mL (≈ 17.6 µM)
IC90 (Rhizoctonia solani (Rs)): 2 µg/mL (≈ 3.52 µM)
IC90 [6]: > 50 µg/mL
IC90 (Diplodia maydis (Dm)): 10 µg/mL (≈ 17.6 µM)
MIC (C. krusei ATCC 6258): 2.1 to 4 µg/mL (≈ 3.7 to 7.05 µM)
IC90 (Botrtyis cinerea (Bc)): 2 µg/mL (≈ 3.52 µM)
IC90 (Septoria tritici (St)): > 50 µg/mL
IC50 (Fungal ACC2): 0.7 to 2 nM
IC90 [7]: 10 µg/mL (≈ 17.6 µM)
